Source: US10583137B2, “Triazole DAGLα inhibitors” (THE SCRIPPS RESEARCH INSTITUTE, priority 2015, dated 2020)
Read-outs that look alike come from different tables or passages of the source.

How the values were obtained:
recombinant human DAGLβ = recombinant human DAGLβ (Homo sapiens (Human), UniProt Q8NCG7); assay: SAG substrate assay (in vitro inhibition of 2-AG biosynthesis), membrane lysates from HEK293T cells; type: biochemical
Method: DAGL modulators were tested for in vitro inhibition of 2-AG biosynthesis using a 1-stearoyl-2-arachidonoyl-sn-glycerol (SAG) substrate assay in DAGL-transfected HEK293 cells.
The SAG substrate assay, as described in Journal of lipid research 56(4):927-935, was performed using the following assay conditions: 0.2 U/mL glycerol kinase (GK), glycerol-3-phosphate oxidase (GPO) and horseradish peroxidase (HRP), 0.125 mM ATP, 10 μM Amplifu™Red, 5% DMSO in a total volume of 200 μL. The assay additionally contained SAG, a DAGL modulator, and membrane lysates from HEK293T cells expressing recombinant human DAGLα or DAGLβ.
Membranes were prepared from HEK293T cells transiently transfected with DAGLα or DAGLβ plasmids encoding for full length DAGLα or DAGLβ, respectively (Angewandte Chemie 52(46):12081-12085; Journal of Medicinal Chemistry 57(15):6610-6622). Briefly, one day prior to transfection, 10^7 cells were seeded in a 15 cm petri dish. The seeded cells were transfected by the addition of a 3:1 mixture of polyethyleneimine (60 μg) and plasmid DNA (20 μg) in 2 mL serum free medium. The medium was refreshed after 24 hr, and after 72 hr the cells were harvested by suspending them in 20 mL medium. The suspension was centrifuged for 10 min at 1000 rpm, and the supernatant was removed. The cell pellet was stored at −80° C. until use. Cell pellets were thawed on ice and suspended in lysis buffer A (20 mM HEPES, 2 mM DTT, 0.25 M sucrose, 1 mM MgCl2, lx protease inhibitor cocktail (Roche cOmplete EDTA free), 25 U/μL Benzonase). The suspension was homogenized by polytrone (3×7 sec) and incubated for 30 min on ice. The suspension was subjected to ultracentrifugation (100,000×g, 30 min, 4° C., Beckman Coulter, Type Ti70 rotor) to yield the cytosolic fraction in the supernatant and the membrane fraction as a pellet. The pellet was resuspended in lysis buffer B (20 mM HEPES, 2 mM DTT, lx protease inhibitor cocktail (Roche cOmplete EDTA free)) and the protein concentration determined with Quick Start Bradford assay (Biorad). The protein fractions were diluted to a total protein concentration of 1 mg/mL and stored in small aliquots at −80° C. until use.

serine hydrolases = assay: ABPP selectivity against serine hydrolases in mouse brain proteome; type: biochemical
Method: Compounds 14 and 17 were evaluated for activity and selectivity against endogenous DAGLs and other serine hydrolases in the mouse brain proteome using a ABPP of mouse brain proteome assay as described in Example 16. These experiments were performed using three different activity-based probesprobe compound 58 (targets DAGLα and DAGLβ), HT-01 (targets DAGLα and DAGLβ), and FP-Rh (broad-spectrum serine hydrolase-directed probe fluorophosphonate-rhodamine).
(§1) Data represent average values±SEM; n=3 per group. […] Compounds 14 and 17 had minimal and negligible binding, respectively, to cannabinoid CB1 (CB1R) and CB2 (CB2R) receptors as measured with a radioligand binding assay (IC50 values>1 μM) (data not shown).
The selectivity of compounds 14 and 17 for additional serine hydrolases was assessed using probe FP-Rh (0.5 μM, 20 min; data not shown). Representative mouse brain serine hydrolases detected by FP-Rh were FAAH, MAGL, and ABHD6.

[1] = test system: LPS-induced neuroinflammatory responses (brain lipids, cytokines, body temperature); assay: LPS-induced neuroinflammatory responses in mouse brain; type: in vivo; conditions: mice; for LPS-induced elevation in brain 2-AG / LPS-induced elevation in brain PGE2 / LPS-stimulated brain cytokines: 50 mg/kg i.p. 60-90 min before LPS 20 mg/kg i.p., 6 hr; for LPS-induced anapyrexia: 50 mg/kg i.p. before LPS; for brain 2-AG under basal control conditions / brain AA under basal control conditions / brain PGE2 under basal control conditions: 50 mg/kg i.p., no LPS
Method: The effects of pharmacological and genetic inactivation of DAGL activity on neuroinflammatory responses (brain prostaglandin and cytokine production) induced by high-dose lipopolysaccharide treatment was examined.
Mice were treated with compounds 14, 17, control compound 22 or vehicle (50 mg/kg, i.p) for 60-90 min, followed by LPS (20 mg/kg, i.p., 6 hr) or vehicle. The mice were subsequently sacrificed and their brain lipid and cytokine profiles analyzed. […] The LPS-induced elevations in both 2-AG and PGE2 were suppressed in compound 14 and compound 17 treated mice and DAGLα/mice, but not compound 22 treated mice. […] LPS-induced anapyrexia was blunted in compound 14 and 17 treated mice (FIG. 8E) and DAGLα−/− mice (FIG. 8F), but not compound 22 treated mice (FIG. 8E).

CES1C = CES1C (Mus musculus (Mouse), UniProt P23953); assay: in vivo ABPP coupled to quantitative mass spectrometry (FP-biotin, ReDiMe); conditions: brain proteomes of treated mice
Method: (§2) The extent of these target profiles were confirmed by performing ABPP coupled to high-resolution, quantitative mass spectrometry (MS). Briefly, brain proteomes from compound and vehicle-treated mice were incubated with the serine hydrolase directed activity-based probe FP-biotin, and probe-labeled enzymes were enriched by streptavidin chromatography, digested on bead with trypsin, and the resulting tryptic peptides modified by reductive dimethylation (ReDiMe) of lysine residues using isotopically heavy and light formaldehyde, respectively. In these experiments, inhibited serine hydrolases are identified as enzymes showing low heavy/light ReDiMe ratios.

DAGLα = DAGLα (Mus musculus (Mouse), UniProt Q6WQJ1); assay: as above; conditions: brain proteomes of treated mice
Method: as §2

ABHD6 = ABHD6 (Mus musculus (Mouse), UniProt Q8R2Y0); assay: as above; conditions: brain proteomes of treated mice
Method: as §2

DAGLβ = DAGLβ (Mus musculus (Mouse), UniProt Q91WC9); assay: as above; conditions: brain proteomes of treated mice
Method: as §2

[2] = test system: DSI at CA1 pyramidal neuron synapses; assay: depolarization-induced suppression of inhibition (DSI) in hippocampal slices; conditions: bath application 30 min
Method: DSI was evaluated at CA1 pyramidal neuron synapses in hippocampal slices. DSI was induced in vehicle-treated hippocampal slices by applying a brief depolarization while evoking […] through stimulation of synaptic inhibitory inputs (FIG. 7C). Bath application of compound 14 (10 μM) and compound 17 (1 μM), but not compound 22 (10 μM), for 30 min before starting electrophysiological recordings blocked hippocampal DSI (FIGS. 7C and D).

[3] = target: cannabinoid CB2 (CB2R) receptor (Homo sapiens (Human), UniProt P34972); assay: radioligand binding assay
Method: as §1

[4] = target: cannabinoid CB1 (CB1R) receptor (Homo sapiens (Human), UniProt P21554); assay: radioligand binding assay
Method: as §1

DAGLs = assay: time-course of DAGL inhibition and recovery in mice, competitive ABPP with compound 58 probe; type: in vivo, mouse; conditions: 50 mg/kg
Method: Inhibition of DAGL in mice with DAGL compounds 14 and 17 was investigated as a function of time as determined by competitive ABPP using the compound 58 probe (1 μM, 30 min).

Chain of ABHD6 (Q8R2Y0 whole entry): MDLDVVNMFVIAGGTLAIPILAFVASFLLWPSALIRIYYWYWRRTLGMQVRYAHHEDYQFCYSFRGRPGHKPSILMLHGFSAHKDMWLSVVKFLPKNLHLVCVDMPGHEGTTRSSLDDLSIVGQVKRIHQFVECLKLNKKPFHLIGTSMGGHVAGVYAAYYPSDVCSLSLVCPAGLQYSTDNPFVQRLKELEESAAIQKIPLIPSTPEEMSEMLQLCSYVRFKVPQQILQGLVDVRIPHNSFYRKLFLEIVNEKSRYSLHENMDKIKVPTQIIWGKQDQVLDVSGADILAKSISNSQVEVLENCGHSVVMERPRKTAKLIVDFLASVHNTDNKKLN
Chain of cannabinoid CB1 (CB1R) receptor (P21554 whole entry): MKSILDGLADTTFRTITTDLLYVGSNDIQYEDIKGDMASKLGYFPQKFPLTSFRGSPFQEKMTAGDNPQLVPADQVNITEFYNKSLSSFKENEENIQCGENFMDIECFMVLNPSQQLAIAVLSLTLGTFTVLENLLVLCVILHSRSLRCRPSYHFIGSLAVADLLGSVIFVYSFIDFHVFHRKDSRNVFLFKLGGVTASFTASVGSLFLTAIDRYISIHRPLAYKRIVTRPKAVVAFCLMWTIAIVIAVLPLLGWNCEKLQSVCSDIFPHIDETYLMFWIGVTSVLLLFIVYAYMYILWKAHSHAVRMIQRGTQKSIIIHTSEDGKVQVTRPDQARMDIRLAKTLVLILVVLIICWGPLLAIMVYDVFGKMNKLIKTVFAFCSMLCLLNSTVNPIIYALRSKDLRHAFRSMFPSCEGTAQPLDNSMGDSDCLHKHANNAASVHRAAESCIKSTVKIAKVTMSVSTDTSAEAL
Chain of CES1C (P23953 19-554): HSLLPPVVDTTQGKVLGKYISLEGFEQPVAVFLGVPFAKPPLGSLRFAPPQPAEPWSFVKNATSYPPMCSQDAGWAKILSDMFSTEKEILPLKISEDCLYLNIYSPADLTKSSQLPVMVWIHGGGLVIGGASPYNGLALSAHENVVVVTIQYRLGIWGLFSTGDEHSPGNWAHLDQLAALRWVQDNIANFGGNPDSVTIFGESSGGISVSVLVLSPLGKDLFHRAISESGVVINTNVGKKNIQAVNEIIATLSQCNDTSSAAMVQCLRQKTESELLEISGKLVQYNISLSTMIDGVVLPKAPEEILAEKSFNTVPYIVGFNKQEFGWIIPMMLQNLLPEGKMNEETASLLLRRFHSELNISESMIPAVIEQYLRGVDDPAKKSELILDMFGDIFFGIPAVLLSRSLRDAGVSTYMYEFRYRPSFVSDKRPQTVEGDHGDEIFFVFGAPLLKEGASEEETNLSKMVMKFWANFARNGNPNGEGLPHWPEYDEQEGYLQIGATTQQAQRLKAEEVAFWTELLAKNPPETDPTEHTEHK
Chain of recombinant human DAGLβ (Q8NCG7 whole entry): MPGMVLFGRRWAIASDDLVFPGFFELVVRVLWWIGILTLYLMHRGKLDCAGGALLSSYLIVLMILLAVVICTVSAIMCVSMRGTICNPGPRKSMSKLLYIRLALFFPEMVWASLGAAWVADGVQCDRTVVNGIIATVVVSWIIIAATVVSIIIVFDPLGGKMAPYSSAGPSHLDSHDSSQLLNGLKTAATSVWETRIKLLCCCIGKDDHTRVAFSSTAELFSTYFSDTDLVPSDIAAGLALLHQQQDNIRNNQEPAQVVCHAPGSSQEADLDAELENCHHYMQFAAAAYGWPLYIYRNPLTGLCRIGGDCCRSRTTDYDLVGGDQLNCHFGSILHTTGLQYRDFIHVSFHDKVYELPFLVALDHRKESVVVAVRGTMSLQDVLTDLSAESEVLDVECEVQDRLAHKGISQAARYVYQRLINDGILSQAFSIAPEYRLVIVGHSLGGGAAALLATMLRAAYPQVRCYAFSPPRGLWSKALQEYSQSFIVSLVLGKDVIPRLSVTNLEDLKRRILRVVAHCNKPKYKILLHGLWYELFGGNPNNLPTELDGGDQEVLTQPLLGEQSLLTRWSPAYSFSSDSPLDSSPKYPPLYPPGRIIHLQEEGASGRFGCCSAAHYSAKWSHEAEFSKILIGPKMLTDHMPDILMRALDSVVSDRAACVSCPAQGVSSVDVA
Chain of DAGLβ (Q91WC9 whole entry): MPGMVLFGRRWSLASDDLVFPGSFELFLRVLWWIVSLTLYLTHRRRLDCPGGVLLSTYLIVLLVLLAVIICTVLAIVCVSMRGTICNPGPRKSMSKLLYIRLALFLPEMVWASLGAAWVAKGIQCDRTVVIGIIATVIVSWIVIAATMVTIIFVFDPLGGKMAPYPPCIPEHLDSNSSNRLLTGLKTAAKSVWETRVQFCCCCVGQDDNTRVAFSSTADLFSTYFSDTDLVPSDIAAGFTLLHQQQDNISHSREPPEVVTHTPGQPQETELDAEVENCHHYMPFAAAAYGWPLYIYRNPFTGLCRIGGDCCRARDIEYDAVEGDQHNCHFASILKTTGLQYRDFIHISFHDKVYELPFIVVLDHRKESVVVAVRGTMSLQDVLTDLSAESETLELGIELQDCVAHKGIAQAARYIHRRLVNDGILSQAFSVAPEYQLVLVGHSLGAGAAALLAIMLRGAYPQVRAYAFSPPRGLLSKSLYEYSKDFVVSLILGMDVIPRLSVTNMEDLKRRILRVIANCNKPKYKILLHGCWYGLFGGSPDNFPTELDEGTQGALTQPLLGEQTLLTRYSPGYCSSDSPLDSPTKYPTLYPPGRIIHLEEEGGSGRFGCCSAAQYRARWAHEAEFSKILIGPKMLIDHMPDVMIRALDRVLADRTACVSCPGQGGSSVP
Chain of DAGLα (Q6WQJ1 whole entry): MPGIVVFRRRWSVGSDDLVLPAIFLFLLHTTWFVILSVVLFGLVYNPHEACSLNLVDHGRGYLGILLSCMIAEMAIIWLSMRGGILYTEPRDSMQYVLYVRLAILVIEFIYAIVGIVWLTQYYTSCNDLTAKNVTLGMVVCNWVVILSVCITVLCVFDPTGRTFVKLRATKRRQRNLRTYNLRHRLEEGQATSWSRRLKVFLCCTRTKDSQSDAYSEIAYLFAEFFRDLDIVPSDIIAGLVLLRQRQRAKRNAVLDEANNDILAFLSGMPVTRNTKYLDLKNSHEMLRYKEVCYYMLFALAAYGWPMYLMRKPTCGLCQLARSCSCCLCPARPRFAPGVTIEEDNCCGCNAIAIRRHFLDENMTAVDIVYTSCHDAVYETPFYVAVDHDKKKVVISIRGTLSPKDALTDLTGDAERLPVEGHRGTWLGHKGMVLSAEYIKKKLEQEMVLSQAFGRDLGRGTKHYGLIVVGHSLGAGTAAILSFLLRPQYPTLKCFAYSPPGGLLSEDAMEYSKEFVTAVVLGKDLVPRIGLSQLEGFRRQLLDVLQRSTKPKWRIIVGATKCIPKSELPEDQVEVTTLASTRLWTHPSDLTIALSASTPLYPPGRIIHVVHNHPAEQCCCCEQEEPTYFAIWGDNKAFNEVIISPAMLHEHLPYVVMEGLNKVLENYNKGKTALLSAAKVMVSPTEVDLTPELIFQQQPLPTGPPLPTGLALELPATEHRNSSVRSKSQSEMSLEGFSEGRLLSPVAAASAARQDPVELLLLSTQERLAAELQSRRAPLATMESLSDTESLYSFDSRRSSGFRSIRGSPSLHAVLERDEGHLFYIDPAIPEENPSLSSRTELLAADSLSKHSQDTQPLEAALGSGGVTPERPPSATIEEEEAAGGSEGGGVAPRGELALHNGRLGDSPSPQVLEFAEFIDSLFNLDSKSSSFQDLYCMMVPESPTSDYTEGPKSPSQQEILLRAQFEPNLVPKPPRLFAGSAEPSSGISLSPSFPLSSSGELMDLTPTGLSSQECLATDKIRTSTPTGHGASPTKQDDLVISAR
Chain of cannabinoid CB2 (CB2R) receptor (P34972 whole entry): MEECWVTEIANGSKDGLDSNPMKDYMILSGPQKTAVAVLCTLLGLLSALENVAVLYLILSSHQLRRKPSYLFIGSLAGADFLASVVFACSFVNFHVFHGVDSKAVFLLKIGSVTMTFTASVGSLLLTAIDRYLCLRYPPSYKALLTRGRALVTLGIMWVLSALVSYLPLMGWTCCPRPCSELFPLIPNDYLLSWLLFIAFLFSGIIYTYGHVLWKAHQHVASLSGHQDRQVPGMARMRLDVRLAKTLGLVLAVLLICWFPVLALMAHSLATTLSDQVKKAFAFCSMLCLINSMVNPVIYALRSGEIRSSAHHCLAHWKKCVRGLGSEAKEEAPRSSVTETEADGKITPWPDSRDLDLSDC

Structure (SMILES)	IC50 (recombinant human DAGLβ) [µM]	selectivity, detectable serine hydrolase off-targets (serine hydrolases)	LPS-induced elevation in brain 2-AG [1]	LPS-induced elevation in brain PGE2 [1]	LPS-stimulated brain cytokines [1]	LPS-induced anapyrexia [1]	brain 2-AG under basal control conditions [1]	brain AA under basal control conditions [1]	brain PGE2 under basal control conditions [1]	heavy/light ReDiMe ratio, CES1C (off-target) (CES1C)	inhibition of DAGLα by quantitative MS (DAGLα)	heavy/light ReDiMe ratio, ABHD6 (off-target) (ABHD6)	inhibition of DAGLβ by quantitative MS (DAGLβ)	duration of sustained inhibition of DAGLs (DAGLs)	DAGL activity at 24-hr post dosing (DAGLs)	other results
CC(C)(C)OC(=O)N1CCN(C(=O)n2cc(-c3ccc(OC(F)(F)F)cc3)nn2)C(Cc2ccccc2)C1 (stereo not drawn) [Compound 17, tert-Butyl 3-benzyl-4-(4-(4-(trifluoromethoxy)phenyl)-1H-1,2,3-triazole-1-carbonyl)piperazine-1-carboxylate]	0.003 to 0.008	selective for DAGLs, with the only detectable serine hydrolase off-targets being ABHD6 and PLA2G7	suppressed	suppressed	reductions	blunted	severely depleted	severely depleted	severely depleted	< 0.5	complete inhibition	< 0.5	partially	up to 8 hr	partial recovery	effect on hippocampal DSI ([2]; 1 μM): blocked; IC50 ([3]; radioligand binding assay, read-out: IC50, CB2R binding): > 1 µM; IC50 ([4]; radioligand binding assay, read-out: IC50, CB1R binding): > 1 µM
C#CCO[C@@H]1CC[C@H](Cc2ccccc2)N(C(=O)n2ncc(C(O)(c3ccc(F)cc3)c3ccc(F)cc3)n2)C1 [Compound 14, ((2R,5R)-2-Benzyl-5-(prop-2-ynyloxy)piperidin-1-yl)(4-(bis(4-fluorophenyl)(hydroxy)methyl)-2H-1,2,3-triazol-2-yl)methanone]	0.003 to 0.008	selective for DAGLs, with the only detectable serine hydrolase off-targets being ABHD6 and PLA2G7	suppressed	suppressed	reductions	blunted	severely depleted	severely depleted	severely depleted	< 0.5	complete inhibition	< 0.5	strongly	up to 8 hr	partial recovery	effect on hippocampal DSI ([2]; 10 μM): blocked; IC50 [3]: > 1 µM; IC50 [4]: > 1 µM
